Data: patent publication US20250230193A1, “CYCLIC COMPOUND HAVING SELECTIVE KRAS INHIBITORY EFFECT ON HRAS AND NRAS” (CHUGAI SEIYAKU KABUSHIKI KAISHA, priority 2022, published 2025)

Key:
[1] = molecular target: GDP-bound NRAS wild-type protein (Homo sapiens, UniProt P01111); assay: Binding to NRAS by surface plasmon resonance (SPR), Single Cycle Kinetics; conditions: SPR, GDP-bound NRAS wild-type vs GDP-bound KRAS wild-type
[2] = molecular target: GDP-bound HRAS wild-type protein (Homo sapiens, UniProt P01112); assay: Binding to HRAS by surface plasmon resonance (SPR), Single Cycle Kinetics; conditions: SPR, GDP-bound HRAS wild-type vs GDP-bound KRAS wild-type
Sequence of GDP-bound HRAS wild-type protein (P01112 whole entry): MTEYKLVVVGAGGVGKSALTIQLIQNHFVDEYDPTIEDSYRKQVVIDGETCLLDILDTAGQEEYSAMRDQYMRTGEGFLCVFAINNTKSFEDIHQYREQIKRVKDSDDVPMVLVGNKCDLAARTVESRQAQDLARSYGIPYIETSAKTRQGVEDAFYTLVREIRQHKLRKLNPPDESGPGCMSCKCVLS

Sequence of GDP-bound NRAS wild-type protein (P01111 whole entry): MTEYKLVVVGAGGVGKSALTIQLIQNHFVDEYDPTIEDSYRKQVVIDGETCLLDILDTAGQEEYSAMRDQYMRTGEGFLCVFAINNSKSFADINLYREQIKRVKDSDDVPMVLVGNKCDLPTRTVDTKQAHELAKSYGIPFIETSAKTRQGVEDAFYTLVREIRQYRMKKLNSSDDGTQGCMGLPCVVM

Row | Structure (SMILES) | NRAS/KRAS (ratio of KD value with respect to NRAS to KD value with respect to KRAS) [1] | HRAS/KRAS (ratio of KD value with respect to HRAS to KD value with respect to KRAS) [2]
1 | CCC[C@H]1C(=O)N[C@@H]([C@@H](C)CC)C(=O)N(C)CC(=O)N(C)[C@H]2C/C=C\CCN(C2=O)[C@@H](CC2CCCCC2)C(=O)N(C)CC(=O)N[C@@H](CCc2ccc(C(F)(F)F)c(OC)c2)C(=O)N2C[C@@H](C)C[C@H]2C(=O)N(C)C2(CCC2)C(=O)N(C)[C@@H](C2CCCC2)C(=O)N(C)[C@H](C(=O)N(C)C)CC(=O)N1C [PP2370] | B (a compound having 3 or more and less than 10 is denoted as B) | B (a compound having 3 or more and less than 10 is denoted as B)
2 | CCOC[C@H]1C(=O)N[C@@H]([C@@H](C)CC)C(=O)N(C)CC(=O)N(C)[C@H]2C/C=C\CCN(C2=O)[C@@H](CC2CCCCC2)C(=O)N(C)CC(=O)N[C@@H](CCc2ccc(C(F)(F)F)c(OC)c2)C(=O)N2C[C@@H](C)C[C@H]2C(=O)N(C)C2(CCC2)C(=O)N(C)[C@@H](C2CCCC2)C(=O)N(C)[C@H](C(=O)N(C)C)CC(=O)N1C [PP2371] | A (a compound having 10 or more and less than 20 is denoted as A) | B (a compound having 3 or more and less than 10 is denoted as B)
3 | CCC[C@H]1C(=O)N[C@@H]([C@@H](C)CC)C(=O)N(C2CC2)CC(=O)N(C)[C@H]2C/C=C\CCN(C2=O)[C@@H](CC2CCCCC2)C(=O)N(C)CC(=O)N[C@@H](CCc2ccc(C(F)(F)F)c(OC)c2)C(=O)N2C[C@@H](C)C[C@H]2C(=O)N(C)C2(CCC2)C(=O)N(C)[C@@H](C2CCCC2)C(=O)N(C)[C@H](C(=O)N(C)C)CC(=O)N1C [PP2372] | A (a compound having 10 or more and less than 20 is denoted as A) | B (a compound having 3 or more and less than 10 is denoted as B)
4 | CCOC[C@H]1C(=O)N[C@@H]([C@@H](C)CC)C(=O)N(C2CC2)CC(=O)N(C)[C@H]2C/C=C\CCN(C2=O)[C@@H](CC2CCCCC2)C(=O)N(C)CC(=O)N[C@@H](CCc2ccc(C(F)(F)F)c(OC)c2)C(=O)N2C[C@@H](C)C[C@H]2C(=O)N(C)C2(CCC2)C(=O)N(C)[C@@H](C2CCCC2)C(=O)N(C)[C@H](C(=O)N(C)C)CC(=O)N1C [PP2373] | A (a compound having 10 or more and less than 20 is denoted as A) | A (a compound having 10 or more and less than 20 is denoted as A)
5 | CCC[C@H]1C(=O)N[C@@H]([C@@H](C)CC)C(=O)N2CCC[C@H]2C(=O)N(C)[C@H]2C/C=C\CCN(C2=O)[C@@H](CC2CCCCC2)C(=O)N(C)CC(=O)N[C@@H](CCc2ccc(C(F)(F)F)c(OC)c2)C(=O)N2C[C@@H](C)C[C@H]2C(=O)N(C)C2(CCC2)C(=O)N(C)[C@@H](C2CCCC2)C(=O)N(C)[C@H](C(=O)N(C)C)CC(=O)N1C [PP2374] | A (a compound having 10 or more and less than 20 is denoted as A) | A (a compound having 10 or more and less than 20 is denoted as A)
6 | CCOC[C@H]1C(=O)N[C@@H]([C@@H](C)CC)C(=O)N2CCC[C@H]2C(=O)N(C)[C@H]2C/C=C\CCN(C2=O)[C@@H](CC2CCCCC2)C(=O)N(C)CC(=O)N[C@@H](CCc2ccc(C(F)(F)F)c(OC)c2)C(=O)N2C[C@@H](C)C[C@H]2C(=O)N(C)C2(CCC2)C(=O)N(C)[C@@H](C2CCCC2)C(=O)N(C)[C@H](C(=O)N(C)C)CC(=O)N1C [PP2375] | A (a compound having 10 or more and less than 20 is denoted as A) | B (a compound having 3 or more and less than 10 is denoted as B)
7 | CCC[C@H]1C(=O)N[C@@H]([C@@H](C)CC)C(=O)N(C)CC(=O)N(C)[C@H]2C/C=C\CCN(C2=O)[C@@H](CC2CCC(F)(F)CC2)C(=O)N(C)CC(=O)N[C@@H](CCc2ccc(C(F)(F)F)c(OC)c2)C(=O)N2C[C@@H](C)C[C@H]2C(=O)N(C)C2(CCC2)C(=O)N(C)[C@@H](C2CCCC2)C(=O)N(C)[C@H](C(=O)N(C)C)CC(=O)N1C [PP2376] | A (a compound having 10 or more and less than 20 is denoted as A) | A (a compound having 10 or more and less than 20 is denoted as A)
8 | CCCOC[C@H]1C(=O)N[C@@H]([C@@H](C)CC)C(=O)N(C)CC(=O)N(C)[C@H]2C/C=C\CCN(C2=O)[C@@H](CC2CCC(F)(F)CC2)C(=O)N(C)CC(=O)N[C@@H](CCc2ccc(C(F)(F)F)c(OC)c2)C(=O)N2C[C@@H](C)C[C@H]2C(=O)N(C)C2(CCC2)C(=O)N(C)[C@@H](C2CCCC2)C(=O)N(C)[C@H](C(=O)N(C)C)CC(=O)N1C [PP2377] | A (a compound having 10 or more and less than 20 is denoted as A) | A (a compound having 10 or more and less than 20 is denoted as A)
9 | CCC[C@H]1C(=O)N[C@@H]([C@@H](C)CC)C(=O)N(C2CC2)CC(=O)N(C)[C@H]2C/C=C\CCN(C2=O)[C@@H](CC2CCC(F)(F)CC2)C(=O)N(C)CC(=O)N[C@@H](CCc2ccc(C(F)(F)F)c(OC)c2)C(=O)N2C[C@@H](C)C[C@H]2C(=O)N(C)C2(CCC2)C(=O)N(C)[C@@H](C2CCCC2)C(=O)N(C)[C@H](C(=O)N(C)C)CC(=O)N1C [PP2378] | B (a compound having 3 or more and less than 10 is denoted as B) | A (a compound having 10 or more and less than 20 is denoted as A)
10 | CCCOC[C@H]1C(=O)N[C@@H]([C@@H](C)CC)C(=O)N(C2CC2)CC(=O)N(C)[C@H]2C/C=C\CCN(C2=O)[C@@H](CC2CCC(F)(F)CC2)C(=O)N(C)CC(=O)N[C@@H](CCc2ccc(C(F)(F)F)c(OC)c2)C(=O)N2C[C@@H](C)C[C@H]2C(=O)N(C)C2(CCC2)C(=O)N(C)[C@@H](C2CCCC2)C(=O)N(C)[C@H](C(=O)N(C)C)CC(=O)N1C [PP2379] | A (a compound having 10 or more and less than 20 is denoted as A) | A (a compound having 10 or more and less than 20 is denoted as A)
11 | CCC[C@H]1C(=O)N[C@@H]([C@@H](C)CC)C(=O)N2CCC[C@H]2C(=O)N(C)[C@H]2C/C=C\CCN(C2=O)[C@@H](CC2CCC(F)(F)CC2)C(=O)N(C)CC(=O)N[C@@H](CCc2ccc(C(F)(F)F)c(OC)c2)C(=O)N2C[C@@H](C)C[C@H]2C(=O)N(C)C2(CCC2)C(=O)N(C)[C@@H](C2CCCC2)C(=O)N(C)[C@H](C(=O)N(C)C)CC(=O)N1C [PP2380] | A (a compound having 10 or more and less than 20 is denoted as A) | A (a compound having 10 or more and less than 20 is denoted as A)
12 | CCCOC[C@H]1C(=O)N[C@@H]([C@@H](C)CC)C(=O)N2CCC[C@H]2C(=O)N(C)[C@H]2C/C=C\CCN(C2=O)[C@@H](CC2CCC(F)(F)CC2)C(=O)N(C)CC(=O)N[C@@H](CCc2ccc(C(F)(F)F)c(OC)c2)C(=O)N2C[C@@H](C)C[C@H]2C(=O)N(C)C2(CCC2)C(=O)N(C)[C@@H](C2CCCC2)C(=O)N(C)[C@H](C(=O)N(C)C)CC(=O)N1C [PP2381] | A (a compound having 10 or more and less than 20 is denoted as A) | A (a compound having 10 or more and less than 20 is denoted as A)
13 | CCC[C@H]1C(=O)N[C@@H]([C@@H](C)CC)C(=O)N(C)CC(=O)N(C)[C@H]2C/C=C\CCN(C2=O)[C@@H](Cc2ccc(C(F)(F)F)cc2)C(=O)N(C)CC(=O)N[C@@H](CCc2ccc(C(F)(F)F)c(OC)c2)C(=O)N2C[C@H](OCC)C[C@H]2C(=O)N(C)C2(CCC2)C(=O)N(C)[C@@H](C(CC)CC)C(=O)N(C)[C@H](C(=O)N(C)C)CC(=O)N1C [PP2382] | A (a compound having 10 or more and less than 20 is denoted as A) | A (a compound having 10 or more and less than 20 is denoted as A)
14 | CCOC[C@H]1C(=O)N[C@@H]([C@@H](C)CC)C(=O)N(C)CC(=O)N(C)[C@H]2C/C=C\CCN(C2=O)[C@@H](Cc2ccc(C(F)(F)F)cc2)C(=O)N(C)CC(=O)N[C@@H](CCc2ccc(C(F)(F)F)c(OC)c2)C(=O)N2C[C@H](OCC)C[C@H]2C(=O)N(C)C2(CCC2)C(=O)N(C)[C@@H](C(CC)CC)C(=O)N(C)[C@H](C(=O)N(C)C)CC(=O)N1C [PP2383] | A (a compound having 10 or more and less than 20 is denoted as A) | A (a compound having 10 or more and less than 20 is denoted as A)
15 | CC[C@H](C)[C@@H]1NC(=O)[C@H](COC)N(C)C(=O)C[C@@H](C(=O)N(C)C)N(C)C(=O)[C@H](C2CCCC2)N(C)C(=O)C2(CC(C)(C)C2)NC(=O)[C@@H]2C[C@H](C)CN2C(=O)[C@H](CCc2ccc(C(F)(F)F)c(OC)c2)NC(=O)CN(C)C(=O)[C@H](Cc2ccc(C)cc2)N2CC/C=C\C[C@@H](C2=O)N(C)C(=O)CN(C)C1=O [PP2385] | A (a compound having 10 or more and less than 20 is denoted as A) | B (a compound having 3 or more and less than 10 is denoted as B)
